Reference: patent US10160726B2, “Quinolone derivatives as antibacterials” (priority 2014, dated 2018)
≈ marks a conversion by molar mass, not a printed value. Structures can show the parent of a compound that is named as a salt. Where two headings read alike, the source gives them in different places.

Columns and labels:
Format in all cases: cell-based
[1] = system: E. coli NB27177 (efflux deficient CGSC 11430, ΔtolC732::kan); assay: microbe, parasite or virus in culture; conditions: Escherichia coli, 20 h, read-out: Antibacterial activity (MIC) NB27177
[2] = system: E. coli ATCC 25922 (NB27001); assay: MIC, broth microdilution (CLSI); conditions: Escherichia coli, ATCC25922; E. coli ATCC 25922; 35° C., 20 hours; read-out: Antibacterial activity (MIC) NB27001
[3] = system: P. aeruginosa NB52023 (efflux deficient K1542, ΔmexX ΔmexB); assay: microbe, parasite or virus in culture; conditions: Pseudomonas aeruginosa, 20 h, read-out: Antibacterial activity (MIC) NB52023
[4] = system: P. aeruginosa NB52023-CDK0006 (gyrA T83I, parC S87L); assay: microbe, parasite or virus in culture; conditions: Pseudomonas aeruginosa, 20 h, read-out: Antibacterial activity (MIC) NB52023-CDK0006
[5] = system: S. aureus NB01006-AVR005 (gyrA S84L, grlA S80F, grlB E471K); assay: microbe, parasite or virus in culture; conditions: Staphylococcus aureus, 20 h, read-out: Antibacterial activity (MIC) NB01006-AVR005
[6] = system: P. aeruginosa NB52019 (wild-type PAO1); assay: MIC, broth microdilution (CLSI); conditions: Pseudomonas aeruginosa, read-out: Antibacterial activity (MIC) NB52019
[7] = system: S. aureus ATCC 29213 (NB01001); assay: MIC, broth microdilution (CLSI); conditions: Staphylococcus aureus, ATCC29213; S. aureus ATCC 29213; 35° C., 20 hours; read-out: Antibacterial activity (MIC) NB01001
[8] = P. aeruginosa wild-type PAO1, 35° C., 20 hours

Structure (SMILES)	MIC [1] [µg/mL]	MIC [2] [µg/mL]	MIC [3] [µg/mL]	MIC [4] [µg/mL]	MIC [5] [µg/mL]	MIC [6, 8] [µg/mL]	MIC [7] [µg/mL]	MIC ([6]; PAO1, 20 h) [µg/mL]
Cc1c(N2CCC(CN)C2)c(F)cc2c(CNCCN)cc(=O)n(C3CC3)c12.O=C(O)C(F)(F)F (stereo not drawn) [Example 87, 4-(((2-aminoethyl)amino)methyl)-7-(3-(aminomethyl)pyrrolidin-1-yl)-1-cyclopropyl-6-fluoro-8-methylquinolin-2(1H)-one TFA salt]	0.5	8	4	8	0.25	16	0.5	–
CCOC(=O)c1cc(=O)n(C2CC2)c2c(C)c(N3CC[C@@H]([C@H](C)N)C3)c(F)cc12 [Example 35, ethyl 7-((R)-3-((S)-1-aminoethyl)pyrrolidin-1-yl)-1-cyclopropyl-6-fluoro-8-methyl-2-oxo-1,2-dihydroquinoline-4-carboxylate]	< 0.03	4 (≈ 9.96 µM)	8 (≈ 19.9 µM)	8 (≈ 19.9 µM)	0.06 (≈ 0.149 µM)	–	0.06 (≈ 0.149 µM)	8 (≈ 19.9 µM)
CCc1cc(=O)n(C2CC2)c2c(C)c(N3CC[C@@H]([C@H](C)N)C3)c(F)cc12 [Example 24, 7-((R)-3-((S)-1-aminoethyl)pyrrolidin-1-yl)-1-cyclopropyl-4-ethyl-6-fluoro-8-methylquinolin-2(1H)-one]	0.06 (≈ 0.168 µM)	8 (≈ 22.4 µM)	> 32	> 32	0.06 (≈ 0.168 µM)	–	0.06 (≈ 0.168 µM)	> 32
Cc1c(N2CC[C@@H]([C@H](C)N)C2)c(F)cc2c(OCCN)cc(=O)n(C3CC3)c12 [Example 51, 4-(2-aminoethoxy)-7-((R)-3-((S)-1-aminoethyl)pyrrolidin-1-yl)-1-cyclopropyl-6-fluoro-8-methylquinolin-2(1H)-one]	0.06 (≈ 0.154 µM)	2 (≈ 5.15 µM)	2 (≈ 5.15 µM)	2 (≈ 5.15 µM)	0.5 (≈ 1.29 µM)	–	0.5 (≈ 1.29 µM)	4 (≈ 10.3 µM)
CC(=O)N[C@@H](C)[C@@H]1CCN(c2c(F)cc3c(OCCN(C)C)cc(=O)n(C4CC4)c3c2C)C1 [Example 50, N—((S)-1-((R)-1-(1-cyclopropyl-4-(2-(dimethylamino)ethoxy)-6-fluoro-8-methyl-2-oxo-1,2-dihydroquinolin-7-yl)pyrrolidin-3-yl)ethyl)acetamide]	0.125 (≈ 0.273 µM)	32 (≈ 69.8 µM)	> 32	> 32	2 (≈ 4.36 µM)	–	1 (≈ 2.18 µM)	> 32
Cc1c(N2CC[C@@H]([C@H](C)N)C2)c(F)cc2c(-c3cc(F)c(O)c(F)c3)cc(=O)n(C3CC3)c12 [Example 20, 7-((R)-3-((S)-1-aminoethyl)pyrrolidin-1-yl)-1-cyclopropyl-4-(3,5-difluoro-4-hydroxyphenyl)-6-fluoro-8-methylquinolin-2(1H)-one]	0.125 (≈ 0.273 µM)	32 (≈ 69.9 µM)	32 (≈ 69.9 µM)	16 (≈ 35 µM)	0.25 (≈ 0.546 µM)	–	0.5 (≈ 1.09 µM)	> 32
Cc1c(C#N)c2cc(F)c(N3CC[C@@H]([C@H](C)N)C3)c(C)c2n(C2CC2)c1=O [Example 28, 7-((R)-3-((S)-1-aminoethyl)pyrrolidin-1-yl)-1-cyclopropyl-6-fluoro-3,8-dimethyl-2-oxo-1,2-dihydroquinoline-4-carbonitrile]	< 0.03	2 (≈ 5.43 µM)	2 (≈ 5.43 µM)	0.5 (≈ 1.36 µM)	< 0.03	–	< 0.03	16 (≈ 43.4 µM)
Cc1c(N2CCC(F)(CN)C2)c(F)c(F)c2c(CN)cc(=O)n(C3CCC3)c12 (stereo not drawn) [Example 115, 4-(aminomethyl)-7-(3-(aminomethyl)-3-fluoropyrrolidin-1-yl)-1-cyclobutyl-5,6-difluoro-8-methylquinolin-2(1H)-one TFA salt]	0.5	1	8	16	4	–	2	> 32
Cc1c(N2CCC(CN)C2)c(F)cc2c(CCN)cc(=O)n(C3CC3)c12.O=C(O)C(F)(F)F (stereo not drawn) [Example 91, 4-(2-aminoethyl)-7-(3-(aminomethyl)pyrrolidin-1-yl)-1-cyclopropyl-6-fluoro-8-methylquinolin-2(1H)-one TFA salt]	1	8	8	16	1	16	1	–
